Blank lines part the entries; values can stand above or below the compound they belong to.
Test: HILIC, Waters ACQUITY UPLC BEH Amide, 100 × 2.1 mm, 1.7 µm; A: water + 0.125% formic acid + 10 mM ammonium formate; B: 5% water + 95% acetonitrile + 0.125% formic acid + 10 mM ammonium formate; gradient (min/%B) 0/100 2/100 7.7/70 9.5/40 10.25/30 12.75/100 17/100
Conditions: stereoisomer not certain

Structure (SMILES): CCC1OC(=O)C(C)C(OC2CC(C)(OC)C(O)C(C)O2)C(C)C(OC2OC(C)CC(N(C)C)C2O)C(C)(OC)CC(C)C(=O)C(C)C(O)C1(C)O (configuration not stated) [Clarithromycin]
LC retention time: 3 min

Structure (SMILES): CC(N)C(=O)NC(C)C(=O)O (configuration not stated) [Ala-Ala]
LC retention time: 8.41 min

Structure (SMILES): CC(C)CC(N)C(=O)NC(C)C(=O)O (configuration not stated) [Leu-Ala]
LC retention time: 5 min

Structure (SMILES): CN(C)CCOC(C)(c1ccccc1)c1ccccn1 (configuration not stated) [Doxylamine]
LC retention time: 2.45 min

Structure (SMILES): CN(C)c1ccc(N=Nc2ccccc2)cc1 [p-(Dimethylamino)azobenzene [methyl yellow]]
LC retention time: 0.93 min

Structure (SMILES): NC(N)=NCCCCC(N)C(=O)O (configuration not stated) [Homoarginine]
LC retention time: 9.34 min

Structure (SMILES): CC12CCC3C(CCC4CC(O)CCC43C)C1CCC2O (configuration not stated) [Androstane-3,17-diol]
LC retention time: 0.96 min

Structure (SMILES): COc1cc(C=CC=O)ccc1O [Coniferylaldehyde]
LC retention time: 1.14 min

Structure (SMILES): CC(=O)NCCCCCCNC(C)=O
LC retention time: 1.5 min

Structure (SMILES): C[N+](C)(C)CC(=O)[O-] [Betaine]
LC retention time: 7.24 min

Structure (SMILES): Nc1ccc(O)cc1 [4-Aminophenol]
LC retention time: 1.34 min

Structure (SMILES): C=CC(C)(O)CCC=C(C)C (configuration not stated) [Linalool]
LC retention time: 0.97 min

Structure (SMILES): O=c1ccc2ccccc2[nH]1 [2-Hydroxyquinoline]
LC retention time: 1.51 min

Structure (SMILES): CN1CCC(=C2c3ccccc3C=Cc3ccccc32)CC1 [Cyproheptadine]
LC retention time: 2.31 min

Structure (SMILES): NCCS [2-Aminoethanethiol]
LC retention time: 2.05 min

Structure (SMILES): c1ccc2scnc2c1 [Benzothiazole]
LC retention time: 1.11 min

Structure (SMILES): O=C(O)CCNC(=O)c1ccc(N=Nc2ccc(O)c(C(=O)O)c2)cc1 [Balsalazide]
LC retention time: 4.85 min

Structure (SMILES): O=C(O)CNC(=O)c1cccnc1 [Nicotinoylglycine]
LC retention time: 7.08 min

Structure (SMILES): NC(Cc1cccc(O)c1)C(=O)O (configuration not stated) [3-Hydroxyphenylalanine]
LC retention time: 7.44 min

Structure (SMILES): O=C(O)C1CC(O)CN1 (configuration not stated) [Hydroxyproline]
LC retention time: 8.14 min

Structure (SMILES): CC(CCCCC(=O)Nc1ccc(C(F)(F)F)cc1)NCCc1cnc[nH]1 (configuration not stated) [Histamine-trifluoromethyltoluide]
LC retention time: 5.3 min

Structure (SMILES): CNc1ccccc1 [N-Methylaniline]
LC retention time: 1.06 min

Structure (SMILES): NC(Cc1ccc(O)c([N+](=O)[O-])c1)C(=O)O (configuration not stated) [3-Nitrotyrosine]
LC retention time: 6.88 min

Structure (SMILES): Nc1nc2nc[nH]c2c(=O)[nH]1 [Guanine]
LC retention time: 6.4 min

Structure (SMILES): CNCCC(Oc1ccccc1C)c1ccccc1 (configuration not stated) [Atomoxetine]
LC retention time: 2.42 min

Structure (SMILES): CC(=O)NCCCC(=O)O [4-Acetamidobutyric acid]
LC retention time: 2.26 min

Structure (SMILES): CCCCCCCCCCCC(=O)OC(CC(=O)[O-])C[N+](C)(C)C [Lauroyl-L-carnitine]
LC retention time: 3.63 min

Structure (SMILES): NCCP(=O)(O)O [2-Aminoethylphosphonic acid]
LC retention time: 9.39 min

Structure (SMILES): CC1CCCC(O)CCCCCc2cc(O)cc(O)c2C(=O)O1 (configuration not stated) [Zeranol]
LC retention time: 1.11 min

Structure (SMILES): CC12CCC3C(CC=C4CC(O)CCC43C)C1CCC2=O (configuration not stated) [Dehydroepiandrosterone]
LC retention time: 1.03 min

Structure (SMILES): CCOP(=O)(OCC)Oc1ccc([N+](=O)[O-])cc1 [Paraoxon]
LC retention time: 1.02 min

Structure (SMILES): CC(Cc1ccccc1)N(C)Cc1ccccc1 (configuration not stated) [Benzphetamine]
LC retention time: 2.03 min

Structure (SMILES): COC1=C(OC)C(=O)C(CCCCCCCCCCO)=C(C)C1=O [Idebenone]
LC retention time: 0.96 min

Structure (SMILES): C[Si](C)(C)CCC(=O)O [3-Trimethylsilylpropionic acid]
LC retention time: 5.64 min

Structure (SMILES): c1ccc(C2CN3CCSC3=N2)cc1 (configuration not stated) [Levamisole]
LC retention time: 2.95 min

Structure (SMILES): CC(C)CC(NC(=O)C(COC(C)(C)C)NC(=O)C(Cc1ccc(O)cc1)NC(=O)C(CO)NC(=O)C(Cc1c[nH]c2ccccc12)NC(=O)C(Cc1cnc[nH]1)NC(=O)C1CCC(=O)N1)C(=O)NC(CCCN=C(N)N)C(=O)N1CCCC1C(=O)NNC(N)=O (configuration not stated) [Goserelin]
LC retention time: 7.83 min

Structure (SMILES): C=CC1=C(C(=O)O)N2C(=O)C(NC(=O)C(=NO)c3csc(N)n3)C2SC1 (configuration not stated) [Cefdinir]
LC retention time: 6.94 min

Structure (SMILES): O=C1CC2(CCCC2)CC(=O)N1CCNCC1COc2ccccc2O1 (configuration not stated) [Binospirone]
LC retention time: 1.8 min

Structure (SMILES): COc1cc(CNC(=O)CCCCC=CC(C)C)ccc1O [Capsaicin]
LC retention time: 1 min

Structure (SMILES): CN1C(=O)COc2c(C(=O)NC3CN4CCC3CC4)cc(Cl)cc21 (configuration not stated) [Azasetron]
LC retention time: 4.66 min

Structure (SMILES): O=Cc1cccc(O)c1 [3-Hydroxybenzaldehyde]
LC retention time: 1.18 min

Structure (SMILES): CCOC(=O)c1ccc(OC(=O)CCCCCN=C(N)N)cc1 [Gabexate]
LC retention time: 3.45 min

Structure (SMILES): CCOC(=O)C(C)Oc1ccc(Oc2nc3ccc(Cl)cc3o2)cc1 (configuration not stated) [Fenoxaprop-P-ethyl]
LC retention time: 1.01 min

Structure (SMILES): Oc1cc(O)c2c(c1)OC(c1cc(O)c(O)c(O)c1)C(O)C2 (configuration not stated) [Epigallocatechin]
LC retention time: 10.2 min

Structure (SMILES): Nc1ccc(C(=O)O)cc1 [4-Aminobenzoic acid]
LC retention time: 7.49 min

Structure (SMILES): CCNC(C)Cc1cccc(C(F)(F)F)c1 (configuration not stated) [Fenfluramine]
LC retention time: 2.33 min

Structure (SMILES): CCCCCC(=O)O [Hexanoic acid]
LC retention time: 4.89 min

Structure (SMILES): Nc1ncnc2c1ncn2C1CC(O)C(CO)O1 (configuration not stated) [2'-Deoxyadenosine]
LC retention time: 3.92 min

Structure (SMILES): CN1C2CC(OC(=O)C(CO)c3ccccc3)CC1C1OC12 (configuration not stated) [Scopolamine]
LC retention time: 3.75 min

Structure (SMILES): CC(C(O)c1ccc(O)cc1)N1CCC(Cc2ccccc2)CC1 (configuration not stated) [Ifenprodil]
LC retention time: 3.17 min

Structure (SMILES): Nc1ccn(C2CC(O)C(CO)O2)c(=O)n1 (configuration not stated) [2'-Deoxycytidine]
LC retention time: 5.87 min

Structure (SMILES): CC12CCC3c4ccc(O)cc4CCC3C1CC(OC1OC(C(=O)O)C(O)C(O)C1O)C2O (configuration not stated) [16-Glucuronide-estriol]
LC retention time: 6.49 min

Structure (SMILES): CC(C)=CCNc1ncnc2nc[nH]c12 [Isopentenyladenine]
LC retention time: 1.81 min

Structure (SMILES): COc1cccc(C(=O)O)c1N [2-Amino-3-methoxybenzoic acid]
LC retention time: 1.27 min

Structure (SMILES): CN1CCC23CCCCC2C1Cc1ccc(O)cc13 (configuration not stated) [Dextrorphan]
LC retention time: 3.87 min

Further lines, results first:

LC retention time: 5.29 min
Structure (SMILES): COC(=O)CN [Methylglycinate]

LC retention time: 1.25 min
Structure (SMILES): NC(=O)CCCCC1CCSS1 (configuration not stated) [Lipoamide]

LC retention time: 1.24 min
Structure (SMILES): O=C(O)CCCCCCCCCCCCCCCCC(=O)O [Octadecanedioic acid]

LC retention time: 1.12 min
Structure (SMILES): COc1ccc(C2CNC(=O)C2)cc1OC1CCCC1 (configuration not stated) [Rolipram]

LC retention time: 1.21 min
Structure (SMILES): COc1ccnc(CS(=O)c2nc3ccc(OC(F)F)cc3[nH]2)c1OC (configuration not stated) [Pantoprazole]

LC retention time: 7.4 min
Structure (SMILES): CN(C)CC(=O)O [N,N-Dimethylglycine]

LC retention time: 1.43 min
Structure (SMILES): COC(=O)c1cc(O)c(O)c(O)c1 [Methylgallate]

LC retention time: 1.02 min
Structure (SMILES): CN1C(C(=O)Nc2ccccn2)=C(O)c2ccccc2S1(=O)=O [Piroxicam]

LC retention time: 2.16 min
Structure (SMILES): O=C(O)c1cccnc1C(=O)O [Quinolinic acid]

LC retention time: 8.07 min
Structure (SMILES): CC(=O)NC(Cc1cnc[nH]1)C(=O)O (configuration not stated) [N-Acetylhistidine]

LC retention time: 7.82 min
Structure (SMILES): CNCC(=O)O [Sarcosine]

LC retention time: 2.57 min
Structure (SMILES): Cc1cn(C2CC(O)C(CO)O2)c(=O)[nH]c1=O (configuration not stated) [Thymidine]

LC retention time: 1.09 min
Structure (SMILES): CC(C(=O)O)c1ccc(CC2CCCC2=O)cc1 (configuration not stated) [Loxoprofen]

LC retention time: 4.56 min
Structure (SMILES): Cc1cc2c(s1)Nc1ccccc1N=C2N1CCN(C)CC1 [Olanzapine]

LC retention time: 8.75 min
Structure (SMILES): NC(=O)CCC(NC(=O)C1CCCN1)C(=O)O (configuration not stated) [Pro-Gln]

LC retention time: 5.11 min
Structure (SMILES): CN(C)CCc1c[nH]c2ccc(Cn3cncn3)cc12 [Rizatriptan]

LC retention time: 3.23 min
Structure (SMILES): CCCCCCCCCCCCCCCC(=O)OC(CC(=O)[O-])C[N+](C)(C)C (configuration not stated) [Palmitoylcarnitine cation]

LC retention time: 2.11 min
Structure (SMILES): CCN1CCCC1CNC(=O)c1c(O)c(Cl)cc(Cl)c1OC (configuration not stated) [Raclopride]

LC retention time: 1.69 min
Structure (SMILES): O=C(CCNNC(=O)c1ccncc1)NCc1ccccc1 [Nialamide]

LC retention time: 1.05 min
Structure (SMILES): C=C1CCOC1=O [alpha-Methylene-gamma-butyrolactone]

LC retention time: 2.84 min
Structure (SMILES): CCCCCN=C(N)NN=Cc1c[nH]c2ccc(OC)cc12 [Tegaserod]

LC retention time: 2.02 min
Structure (SMILES): CN1C(CC(=O)c2ccccc2)CCCC1CC(O)c1ccccc1 (configuration not stated) [Lobeline A]

LC retention time: 1.8 min
Structure (SMILES): CCC(C)C(=O)OC1CC(O)C=C2C=CC(C)C(CCC(O)CC(O)CC(=O)O)C21 (configuration not stated) [Pravastatin]

LC retention time: 1.22 min
Structure (SMILES): O=c1[nH]c(=O)n(C2CCCO2)cc1F (configuration not stated) [Tegafur]

LC retention time: 8.97 min
Structure (SMILES): O=c1ccn(C2OC(COP(=O)(O)O)C(O)C2O)c(=O)[nH]1 (configuration not stated) [Uridine 5'-monophosphate]

LC retention time: 7.38 min
Structure (SMILES): NC(Cc1ccc(O)cc1)C(=O)NC(Cc1ccc(O)cc1)C(=O)O (configuration not stated) [Tyr-Tyr]

LC retention time: 0.89 min
Structure (SMILES): CCCCCCCCCCCC(CC1OC(=O)C1CCCCCC)OC(=O)C(CC(C)C)NC=O (configuration not stated) [Orlistat]

LC retention time: 1.15 min
Structure (SMILES): CC(=O)NCC1CN(c2ccc(N3CCOCC3)c(F)c2)C(=O)O1 (configuration not stated) [Linezolide]

LC retention time: 3.08 min
Structure (SMILES): Fc1ccc(C2CCNCC2COc2ccc3c(c2)OCO3)cc1 (configuration not stated) [Paroxetine]

LC retention time: 1.15 min
Structure (SMILES): CC(C)c1nc(CN(C)C(=O)NC(C(=O)NC(Cc2ccccc2)CC(O)C(Cc2ccccc2)NC(=O)OCc2cncs2)C(C)C)cs1 (configuration not stated) [Ritonavir]

LC retention time: 2.53 min
Structure (SMILES): CNC(CC(=O)O)C(=O)O (configuration not stated) [N-Methylaspartic acid]

LC retention time: 10.3 min
Structure (SMILES): CC(NC(CCCN=C(N)N)C(=O)O)C(=O)O (configuration not stated) [Octopine]

LC retention time: 1.03 min
Structure (SMILES): COc1cc(C)nc(-n2nc(C)cc2OC)n1 [Mepirizole]

LC retention time: 5.61 min
Structure (SMILES): CC1OC(OC2C(Oc3cc(O)c4c(c3)OC(c3ccc(O)cc3)CC4=O)OC(CO)C(O)C2O)C(O)C(O)C1O (configuration not stated) [Naringin]

LC retention time: 4.41 min
Structure (SMILES): CC(Cc1ccccc1)(NC(=O)CN)c1ccccc1 (configuration not stated) [Remacemide]

LC retention time: 5.04 min
Structure (SMILES): COc1cc(C(=O)NC2CCCNC2)cc(OC)c1OC (configuration not stated) [Troxipide]

LC retention time: 6 min
Structure (SMILES): Cc1cc2nc3c(=O)[nH]c(=O)nc-3n(CC(O)C(O)C(O)CO)c2cc1C (configuration not stated) [Riboflavin]
